Assay results from US20230416258A1, “BENZ[…], AND PREPARATION METHOD THEREFOR AND USE THEREOF” (CHINA PHARMACEUTICAL UNIVERSITY, priority 2020, published 2023).

Tested on: KM mice
Experiment: Test for drug-induced disappearance of righting reflex in mice
Type: in vivo
Conditions: single rapid bolus via tail vein
Excerpt: In anesthetic drug experiments, latency generally refers to the time from the start of administration to the loss of consciousness of the subject. The shorter latency is preferred, indicating a rapid onset of action after administration. The duration of anesthesia generally refers to the duration of time from the loss of consciousness to the restoration of consciousness of the subject. The duration of the drug will vary from animal model to animal species. Too long anesthesia may produce adverse cardiovascular and respiratory responses, such as adverse neurological effects to the subject, including sleepiness and dizziness; meanwhile, too short duration of anesthesia may affect the anesthesia effect, causing problems such as increase of anesthesia dosage during the operation.
KM mice (female, 18-25 g) were randomly grouped and subjected to a single administration by rapid bolus via the tail vein. The latency and duration of disappearance of righting reflex in the mice were recorded.

SMILES | Duration (30 mg/kg) [min] | Latency (30 mg/kg) [min] | Duration (60 mg/kg) [min] | Latency (60 mg/kg) [min]
COC(=O)CC[C@@H]1N=C(c2ccccc2Cl)c2cc(Cl)ccc2-n2c(S)nnc21 [Compound 2, methyl (S)-3-(8-chloro-6-(2-chlorophenyl)-1-mercapto-4H-benzo[f][1,2,4]triazolo[4,3-a][1,4]diazepin-4-yl)propionate] | 5.27 | 0.58 | – | –
COC(=O)CC[C@@H]1N=C(c2ccccn2)c2cc(Br)ccc2-n2c(S)nnc21 [Compound 3, methyl (S)-3-(8-bromo-6-(pyridin-2-yl)-1-mercapto-4H-benzo[f][1,2,4]triazolo[4,3-a][1,4]diazepin-4-yl)propionate] | 7.37 | 0.48 | – | –
COC(=O)CC[C@@H]1N=C(c2ccccc2)c2ccccc2-n2c(S)nnc21 [Compound 5, methyl (S)-3-(6-phenyl-1-mercapto-4H-benzo[f][1,2,4]triazolo[4,3-a][1,4]diazepin-4-yl)propionate] | 13.27 | 1.11 | – | –
COC(=O)CC[C@@H]1N=C(c2ccc(F)cc2)c2ccccc2-n2c(S)nnc21 [Compound 6, methyl (S)-3-(6-(4-fluorophenyl)-1-mercapto-4H-benzo[f][1,2,4]triazolo[4,3-a][1,4]diazepin-4-yl)propionate] | 9.93 | 0.59 | – | –
COC(=O)CC[C@@H]1N=C(c2ccccc2)c2cc(Cl)ccc2-n2c(S)nnc21 [Compound 7, methyl (S)-3-(8-chloro-6-phenyl-1-mercapto-4H-benzo[f][1,2,4]triazolo[4,3-a][1,4]diazepin-4-yl)propionate] | 12.26 | 1.14 | – | –
COC(=O)CC[C@@H]1N=C(c2ccccc2F)c2cc(Cl)ccc2-n2c(SC)nnc21 [Compound 8, methyl (S)-3-(8-chloro-6-(2-fluorophenyl)-1-(methylthio)-4H-benzo[f][1,2,4]triazolo[4,3-a][1,4]diazepin-4-yl)propionate] | 8.35 | 0.36 | – | –
COC(=O)CC[C@@H]1N=C(c2ccccc2F)c2cc(Br)ccc2-n2c(SC)nnc21 [Compound 9, methyl (S)-3-(8-bromo-6-(2-fluorophenyl)-1-(methylthio)-4H-benzo[f][1,2,4]triazolo[4,3-a][1,4]diazepin-4-yl)propionate] | 12.12 | 0.84 | – | –
CCSc1nnc2n1-c1ccc(Cl)cc1C(c1ccccc1F)=N[C@H]2CCC(=O)OC [Compound 11, methyl (S)-3-(8-chloro-6-(2-fluorophenyl)-1-(ethylthio)-4H-benzo[f][1,2,4]triazolo[4,3-a][1,4]diazepin-4-yl)propionate] | 6.37 | 0.77 | 7.98 | 0.83
CCSc1nnc2n1-c1ccc(Br)cc1C(c1ccccc1F)=N[C@H]2CCC(=O)OC [Compound 12, methyl (S)-3-(8-bromo-6-(2-fluorophenyl)-1-(ethylthio)-4H-benzo[f][1,2,4]triazolo[4,3-a][1,4]diazepin-4-yl)propionate] | 17.21 | 0.74 | – | –
CCCSc1nnc2n1-c1ccc(Cl)cc1C(c1ccccc1F)=N[C@H]2CCC(=O)OC [Compound 14, methyl (S)-3-(8-chloro-6-(2-fluorophenyl)-1-(propylthio)-4H-benzo[f][1,2,4]triazolo[4,3-a][1,4]diazepin-4-yl)propionate] | 9.12 | 0.78 | – | –
CCCSc1nnc2n1-c1ccc(Br)cc1C(c1ccccc1F)=N[C@H]2CCC(=O)OC [Compound 15, methyl (S)-3-(8-bromo-6-(2-fluorophenyl)-1-(propylthio)-4H-benzo[f][1,2,4]triazolo[4,3-a][1,4]diazepin-4-yl)propionate] | 8.47 | 1.03 | – | –
